PubChem BioAssay (NCI)
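Exposure lasted 48 hours, with cells grown in 96-well plates and compounds tested at five concentrations. Abbreviation: GI50, concentration required for 50% inhibition of growth. Definition used: TGI = concentration required for complete inhibition of growth.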

Legend:
Test in all cases: DTP human tumour cell line panel, 48 h
[1] = system: 786-0 renal
[2] = system: A498 renal
[3] = system: A549 NSCLC
[4] = system: ACHN renal
[5] = system: BT-549 breast
[6] = system: CAKI-1 renal
[7] = system: CCRF-CEM leukemia
[8] = system: COLO 205 colon
[9] = system: DU-145 prostate
[10] = system: EKVX NSCLC
[11] = system: HCC-2998 colon
[12] = system: HCT-116 colon
[13] = system: HCT-15 colon
[14] = system: HL-60(TB) leukemia
[15] = system: HOP-62 NSCLC
[16] = system: HOP-92 NSCLC
[17] = system: HS 578T breast
[18] = system: HT29 colon
[19] = system: IGROV1 ovarian
[20] = system: K-562 leukemia
[21] = system: KM12 colon
[22] = system: LOX IMVI melanoma
[23] = system: M14 melanoma
[24] = system: MALME-3M melanoma
[25] = system: MCF7 breast
[26] = system: MDA-MB-231 breast
[27] = system: MDA-MB-435
[28] = system: MDA-MB-468 breast
[29] = system: MOLT-4 leukemia

SMILES: O=C(c1ccc(OCCN2CCOCC2)cc1)C1[C@H](c2ccc(Cl)cc2)[C@@H](c2ccccc2)NC12C(=O)Nc1ccc(Cl)cc12 (stereo partly drawn)
- GI50 [1]: 8.8 µM
- TGI [1]: 19.6 µM
- GI50 [2]: 8.24 µM
- TGI [2]: 23.2 µM
- GI50 [3]: 12.6 µM
- TGI [3]: > 47.3 µM
- GI50 [4]: 11.9 µM
- TGI [4]: 40.9 µM
- GI50 [5]: 8.58 µM
- TGI [5]: 23.5 µM
- GI50 [6]: 8.1 µM
- TGI [6]: 39.5 µM
- GI50 [7]: 10.6 µM
- TGI [7]: 27.1 µM
- GI50 [8]: 8.43 µM
- TGI [8]: 16.8 µM
- GI50 [9]: 10.9 µM
- TGI [9]: 28.2 µM
- GI50 [10]: 8.46 µM
- TGI [10]: 27.2 µM
- GI50 [11]: 7.6 µM
- TGI [11]: 14.9 µM
- GI50 [12]: 8.02 µM
- TGI [12]: 15.9 µM
- GI50 [13]: 7.53 µM
- TGI [13]: 15.9 µM
- GI50 [14]: 12 µM
- TGI [14]: 34.9 µM
- GI50 [15]: 9.46 µM
- TGI [15]: 19.5 µM
- GI50 [16]: 6.85 µM
- TGI [16]: 18.7 µM
- GI50 [17]: 7.88 µM
- TGI [17]: 21.6 µM
- GI50 [18]: 7.49 µM
- TGI [18]: 16.7 µM
- GI50 [19]: 9.58 µM
- TGI [19]: 23.9 µM
- GI50 [20]: 12.8 µM
- TGI [20]: > 47.3 µM
- GI50 [21]: 8.31 µM
- TGI [21]: 18.2 µM
- GI50 [22]: 7.35 µM
- TGI [22]: 13.7 µM
- GI50 [23]: 8.04 µM
- TGI [23]: 15.8 µM
- GI50 [24]: 7.11 µM
- TGI [24]: 14.3 µM
- GI50 [25]: 8.4 µM
- TGI [25]: 27.8 µM
- GI50 [26]: 7.62 µM
- TGI [26]: 14.4 µM
- GI50 [27]: 7.85 µM
- TGI [27]: 15.8 µM
- GI50 [28]: 7.43 µM
- TGI [28]: 20.4 µM
- GI50 [29]: 7.53 µM
- TGI [29]: 27.9 µM
